# Results: ChEMBL document CHEMBL1201862, “PubChem BioAssay data set” (2004)
# The source made the active and inactive calls.
# What was measured:
# Bcl-2-like protein 10 = biological target: T1, Bcl-2-like protein 10 (Homo sapiens, UniProt Q9HD36); assay: Biochemical TR3 FP assay of Bcl-B inhibitor potency, EC50 (AID 1243); type: functional
# T1 sequence (Q9HD36 whole entry): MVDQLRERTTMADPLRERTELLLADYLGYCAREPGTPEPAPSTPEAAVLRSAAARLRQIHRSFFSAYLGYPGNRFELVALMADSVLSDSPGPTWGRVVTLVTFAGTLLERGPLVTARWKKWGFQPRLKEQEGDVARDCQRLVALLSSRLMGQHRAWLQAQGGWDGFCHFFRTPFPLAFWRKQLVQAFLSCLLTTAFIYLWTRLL
# Estrogen receptor beta [1] = biological target: T2, Estrogen receptor beta (Homo sapiens, UniProt Q92731);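 note: recombinant ER-beta bound to coactivator SRC1 peptide in presence of estradiol agonist; inhibitors block coactivator peptide binding and lower the FRET signal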
# [2] = biological target: T3, Heat shock 70 kDa protein 1A (Homo sapiens, UniProt P0DMV8); assay: Hsp70 inhibitors, biochemical, TR-FRET (AID 786)
# Estrogen receptor beta [3] = biological target: T2, Estrogen receptor beta; assay: ERβ–SRC-3 coactivator interaction inhibitors, confirmation, orthogonal assay, biochemical, ELISA, streptavidin-HRP readout (AID 1060)
# Estrogen receptor = biological target: T4, Estrogen receptor (Homo sapiens, UniProt P03372);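 note: potency for inhibiting coactivator peptide recruitment to the receptor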
# T4 sequence (P03372 whole entry): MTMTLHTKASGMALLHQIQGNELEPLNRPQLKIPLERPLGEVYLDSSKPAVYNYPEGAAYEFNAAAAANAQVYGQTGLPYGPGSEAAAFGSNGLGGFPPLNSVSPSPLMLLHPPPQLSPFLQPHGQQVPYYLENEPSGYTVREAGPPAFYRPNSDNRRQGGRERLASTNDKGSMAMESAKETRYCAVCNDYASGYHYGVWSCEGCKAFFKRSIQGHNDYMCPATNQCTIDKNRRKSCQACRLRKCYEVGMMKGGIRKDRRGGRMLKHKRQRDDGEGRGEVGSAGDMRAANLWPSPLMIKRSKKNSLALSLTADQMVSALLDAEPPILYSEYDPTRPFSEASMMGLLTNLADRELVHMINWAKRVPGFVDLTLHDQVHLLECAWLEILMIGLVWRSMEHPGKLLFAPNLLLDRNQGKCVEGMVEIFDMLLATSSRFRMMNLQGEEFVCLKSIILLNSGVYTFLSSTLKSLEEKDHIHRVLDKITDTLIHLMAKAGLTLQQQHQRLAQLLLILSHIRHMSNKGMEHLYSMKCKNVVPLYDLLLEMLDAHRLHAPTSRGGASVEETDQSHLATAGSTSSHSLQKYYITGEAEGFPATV
# [4] = Luminescence Cell-Based Dose Retest to Confirm Inhibitors of Cancer Stem Cells. [Related pubchem assays (depositor defined):AID2717, AID2721]; type: functional; details: Homo sapiens
# [5] = biological target: T3, Heat shock 70 kDa protein 1A; assay: Hsp70 inhibitors, probe displacement, primary screen, biochemical, fluorescence polarization (AID 583)
# 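Throughout, for AC50: cells exposed to compound for roughly 70 hours or longer before luminescence read.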
# T3 sequence (P0DMV8 whole entry): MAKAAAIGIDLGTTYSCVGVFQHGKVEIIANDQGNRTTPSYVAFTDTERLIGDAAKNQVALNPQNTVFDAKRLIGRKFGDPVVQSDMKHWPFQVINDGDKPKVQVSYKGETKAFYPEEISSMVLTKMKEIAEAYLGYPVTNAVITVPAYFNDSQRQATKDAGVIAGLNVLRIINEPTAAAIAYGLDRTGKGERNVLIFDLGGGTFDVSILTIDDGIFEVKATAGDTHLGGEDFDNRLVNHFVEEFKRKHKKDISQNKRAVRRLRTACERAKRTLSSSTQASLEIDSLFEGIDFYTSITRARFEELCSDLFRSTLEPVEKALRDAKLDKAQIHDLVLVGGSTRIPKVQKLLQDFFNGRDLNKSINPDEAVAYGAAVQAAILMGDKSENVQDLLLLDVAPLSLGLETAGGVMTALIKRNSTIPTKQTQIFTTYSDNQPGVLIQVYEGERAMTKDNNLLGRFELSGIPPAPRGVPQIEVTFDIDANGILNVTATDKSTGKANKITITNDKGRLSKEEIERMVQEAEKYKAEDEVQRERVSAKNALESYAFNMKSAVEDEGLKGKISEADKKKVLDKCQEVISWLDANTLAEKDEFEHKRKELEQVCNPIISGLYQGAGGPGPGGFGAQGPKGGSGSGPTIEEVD
# T2 sequence (Q92731 whole entry): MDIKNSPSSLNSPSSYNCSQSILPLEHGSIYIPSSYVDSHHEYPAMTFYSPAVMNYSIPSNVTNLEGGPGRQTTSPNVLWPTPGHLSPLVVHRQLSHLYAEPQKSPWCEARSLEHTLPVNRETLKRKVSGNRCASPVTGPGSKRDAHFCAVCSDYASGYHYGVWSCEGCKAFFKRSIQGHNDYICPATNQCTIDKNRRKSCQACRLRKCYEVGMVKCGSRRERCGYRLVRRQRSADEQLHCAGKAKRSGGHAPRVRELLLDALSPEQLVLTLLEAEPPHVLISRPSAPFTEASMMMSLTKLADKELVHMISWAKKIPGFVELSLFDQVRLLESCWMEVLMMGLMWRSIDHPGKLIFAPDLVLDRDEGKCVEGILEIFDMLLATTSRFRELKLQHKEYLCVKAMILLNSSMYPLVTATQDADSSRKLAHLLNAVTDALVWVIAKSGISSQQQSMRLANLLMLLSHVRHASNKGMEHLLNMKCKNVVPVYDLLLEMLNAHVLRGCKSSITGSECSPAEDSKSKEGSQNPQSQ
Compound,EC50 (Bcl-2-like protein 10),IC50 (Estrogen receptor beta [1]),IC50 [2],IC50 (Estrogen receptor beta [3]),IC50 (Estrogen receptor),AC50 [4],IC50 [5]
COc1ccccc1NC(=O)C1=C(C)NC(SCC(=O)c2ccc(Br)cc2)=C(C#N)C1c1ccco1 (configuration not stated),6.24 µM (active),,,,,,
Cc1ccc(C(=O)ONc2ccc(N=NC(=O)c3ccccc3O)cc2)cc1,,8.2 µM (active),12.4 µM (active),< 0.023 µM (not active),8.44 µM (active),1.51 µM (active),25.2 µM (active)
